Patent US6184206A, “Integrin ligand dissociators” (The Burnham Institute, priority 1998, dated 2001)

Key:
purified IIb-IIIa [1] = target: T1, purified IIb-IIIa (Homo sapiens, UniProt P05106+P08514); experiment: Surface Plasmon Resonance, real-time dissociation of ligands from IIb-IIIa; format: binding; details: fibrinogen immobilized on sensor chip, without 52012 (FIG. 4B)
Protocol: FIGS. 4A and 4B. Measuring the ability of 52012 to dissociate fibrinogen and Fab-9 from IIb-IIIa in real time. Studies were performed with Surface Plasmon Resonance to examine the ability of 52012 to induce the dissociation of ligands from IIb-IIIa. Fab-9 (FIG. 4A) or fibrinogen (FIG. 4B) were immobilized on the sensor chip and then allowed to bind to purified IIb-IIIa. At a specific time, 52012 was introduced by injection into the flow cell.
In one embodiment, ILDs can be identified by the ability to increase the rate of dissociation between an integrin and its natural ligand, or a known mimic of its natural ligand, with Surface Plasmon Resonance (SPR), for example, using the BIACORE Surface Plasmon Resonance™ instrument. SPR is a technique that measures ligand association and dissociation in "real time." To screen for an ILD using plasmon resonance, the following steps would be taken:
It is important to note that the configuration of the assay could take several different forms. For example, rather than immobilizing the integrin on the sensor chip, one could immobilize the ligand. In such case, the integrin would be allowed to bind the immobilized ligand prior to measuring dissociation rates.
To verify the effect of RGD-type ligands on the dissociation of fibrinogen from IIB-IIIa, dissociation rates were measured in real time using Surface Plasmon Resonance (SPR).

purified IIb-IIIa [2] = target: T1, purified IIb-IIIa; experiment: Competition binding to purified IIb-IIIa immobilized in microtiter plates; details: 125I-Fab-9 challenged with unlabeled fibrinogen (FIG. 1B)
Protocol: FIGS. 1A and 1B. Fibrinogen and Fab-9 bind distinct sites on IIb-IIIa. Studies were conducted with purified IIb-IIIa to determine whether Fab-9 (an RGD mimic) and fibrinogen bind to the same site on the integrin. IIb-IIIa was immobilized in microtiter plates and was allowed to bind either ^125 I-fibrinogen (FIG. 1A) or to ^125 I-Fab-9 (FIG. 1B). The binding of ^125 I-fibrinogen was challenged with unlabeled Fab-9. Similarly, the binding of ^125 I-Fab-9 was challenged with unlabeled fibrinogen.
To determine if fibrinogen and Fab-9 actually bind the same site on IIb-IIIa, a series of competition binding studies were carried out. The ability of the two ligands to compete for binding to IIB-IIIa was measured. Fab-9 blocked the binding of fibrinogen to IIB-IIIa (FIG. 1A). […] These sites are designated as Site I, which binds to Fab-9 and Site II, which interacts with fibrinogen (FIG. 2).

T1 sequence (P08514 32-887 limits assumed): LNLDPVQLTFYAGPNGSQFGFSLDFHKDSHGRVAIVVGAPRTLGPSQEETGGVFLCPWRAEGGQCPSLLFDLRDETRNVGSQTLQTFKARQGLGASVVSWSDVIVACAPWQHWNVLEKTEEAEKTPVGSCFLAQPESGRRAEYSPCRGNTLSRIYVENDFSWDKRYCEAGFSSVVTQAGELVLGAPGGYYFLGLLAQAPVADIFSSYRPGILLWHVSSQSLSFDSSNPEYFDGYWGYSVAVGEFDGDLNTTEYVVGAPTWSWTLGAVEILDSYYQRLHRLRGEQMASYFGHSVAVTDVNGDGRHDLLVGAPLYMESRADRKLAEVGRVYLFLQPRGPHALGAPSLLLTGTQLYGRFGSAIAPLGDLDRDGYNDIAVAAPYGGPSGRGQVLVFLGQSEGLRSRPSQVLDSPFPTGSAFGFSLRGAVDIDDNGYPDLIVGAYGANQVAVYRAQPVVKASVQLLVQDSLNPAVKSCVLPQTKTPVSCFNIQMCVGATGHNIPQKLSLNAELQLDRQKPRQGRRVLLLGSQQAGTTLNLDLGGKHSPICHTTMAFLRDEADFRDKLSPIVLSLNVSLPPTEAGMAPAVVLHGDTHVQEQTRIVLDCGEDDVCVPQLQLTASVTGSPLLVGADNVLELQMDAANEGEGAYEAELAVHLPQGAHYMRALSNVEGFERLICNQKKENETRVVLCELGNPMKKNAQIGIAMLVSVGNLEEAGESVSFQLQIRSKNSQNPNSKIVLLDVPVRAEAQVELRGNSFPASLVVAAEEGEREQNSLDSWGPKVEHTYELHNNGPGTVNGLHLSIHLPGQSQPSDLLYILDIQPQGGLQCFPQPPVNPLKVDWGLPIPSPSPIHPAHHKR
T1 sequence (P08514 891-1039 limits assumed): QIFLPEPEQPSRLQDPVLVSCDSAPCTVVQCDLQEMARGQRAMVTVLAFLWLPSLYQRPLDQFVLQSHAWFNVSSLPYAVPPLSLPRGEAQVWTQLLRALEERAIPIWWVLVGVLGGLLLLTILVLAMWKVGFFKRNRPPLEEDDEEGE
T1 sequence (P05106 27-788): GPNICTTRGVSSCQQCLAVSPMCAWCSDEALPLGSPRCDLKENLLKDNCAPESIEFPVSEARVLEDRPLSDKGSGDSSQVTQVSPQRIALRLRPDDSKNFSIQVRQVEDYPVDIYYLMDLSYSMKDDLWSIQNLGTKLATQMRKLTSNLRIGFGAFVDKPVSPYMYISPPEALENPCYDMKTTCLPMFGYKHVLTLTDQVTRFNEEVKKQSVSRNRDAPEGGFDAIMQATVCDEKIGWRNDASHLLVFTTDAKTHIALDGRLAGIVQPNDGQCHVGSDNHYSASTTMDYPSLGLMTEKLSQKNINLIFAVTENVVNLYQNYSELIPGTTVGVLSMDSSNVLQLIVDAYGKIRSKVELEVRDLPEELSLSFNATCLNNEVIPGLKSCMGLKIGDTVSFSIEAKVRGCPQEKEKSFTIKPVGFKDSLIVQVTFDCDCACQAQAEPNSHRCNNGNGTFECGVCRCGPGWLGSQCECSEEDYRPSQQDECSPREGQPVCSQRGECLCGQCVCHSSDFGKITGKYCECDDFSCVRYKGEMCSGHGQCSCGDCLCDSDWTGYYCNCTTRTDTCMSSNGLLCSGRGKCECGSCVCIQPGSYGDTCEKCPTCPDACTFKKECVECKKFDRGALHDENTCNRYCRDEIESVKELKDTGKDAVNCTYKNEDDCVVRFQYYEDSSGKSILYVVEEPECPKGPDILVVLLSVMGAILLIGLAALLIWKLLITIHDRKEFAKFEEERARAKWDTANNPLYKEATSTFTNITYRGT

Substance: fibrinogen
- off-rate of fibrinogen from IIb-IIIa before 52012 (purified IIb-IIIa [1]): 6e-05 s⁻¹
- blocking of binding of 125I-Fab-9 to IIb-IIIa (purified IIb-IIIa [2]): failed to block
